Read-outs that look alike come from different tables or passages of the source.
How the values were obtained:
[1] = 2 steps

Q: For “(9S,15S,18R,22S)-2-ethyl-18-isopropyl-3-(2-((S)-1-methoxyethyl)-5-(4-methylpiperazin-1-y)pyridin-3-yl)-5,5-dimethyl-22-phenyl-2,4,5,6,9,10,11,12,15,16,18,19,22,23-tetradecahydro-8H,21H-9,13-epimino-1,29-etheno-15,26-methano-24,28-(metheno)pyrrolo[3,4-l][1,17]dioxa[4,23,26]triazacyclononacosine-8,14,17-trione”, which ring closure, isolated yield (amide bond, 13-membered ring, 2 steps) is on record?
A: The ring closure, isolated yield was 6.4%.

Q: Which ring closure, isolated yield (amide bond, 13-membered ring, EDCI/HOBt/DIEA, DCM, 2 steps) does the source give for “(9S,15S,18R,21R)-3-(5-(4-cyclopropylpiperazin-1-yl)-2-((S)-1-methoxyethyl)pyridin-3-yl)-21-(2,6-dichloropyridin-4-yl)-2-ethyl-18-isopropyl-5,5-dimethyl-2,4,5,6,9,10,11,12,15,16,18,19,22,23-tetradecahydro-8H,21H-9,13-epimino-1,29-etheno-15,26-methano-24,28-(metheno)pyrrolo[3,4-l][1,17]dioxa[4,23,26]triazacyclononacosine-8,14,17-trione” here?
A: Its ring closure, isolated yield is 66%.

Q: With “(9S,15S,18S,20aS,21aR)-2-ethyl-18-isopropyl-3-(2-((S)-1-methoxyethyl)pyridin-3-yl)-5,5,19-trimethyl-2,4,5,6,9,10,11,12,15,16,18,19,21,21a,22,23-hexadecahydro-8H-9,13-epimino-1,29-etheno-15,26-methano-24,28-(metheno)cyclopropa[o]pyrrolo[3,4-z][1]oxa[7,10,13,18]tetraazacyclotriacontine-8,14,17,20(20aH)-tetraone” as the molecule, how does the ring closure, yield after HPLC ([1]; amide bond, 14-membered ring) read?
A: The ring closure, yield after HPLC was 1.5%.

Q: With “tert-butyl 4-((9S,15S,18S,21 S)-3-(5-(4-cyclopropylpiperazin-1-yl)-2-((S)-1-methoxyethyl)pyridin-3-yl)-2-ethyl-18-isopropyl-5,5-dimethyl-8,14,17-trioxo-2,4,5,6,9,10,11,12,15,16,17,18,21,22-tetradecahydro-8H,14H,20H-9,13-epimino-1,29-etheno-15,26-methano-24,28-(metheno)pyrrolo[3,4-q][1,13,26]trioxa[4,7]diazacyclononacosin-21-yl)piperazine-1-carboxylate” as the molecule, how does the ring closure, isolated yield (ether bond, 13-membered ring) read?
A: Its ring closure, isolated yield is 40%.

Q: Which ring closure, isolated yield (from COC(=O)[C@@H]1CCCN(C(=O)[C@@H](N)[C@@H](c2nc(Br)cs2)N(C)Cc2ccccc2OC[C@H]2CCCN2[C@H](C(=O)O)C(C)C)N1, amide bond, 13-membered ring, HATU/DIEA, DMF, 12.4 mM, 20.0 °C, 2 steps) does the source give for `COC(=O)[C@@H]1CCCN(C(=O)[C@H]2NC(=O)[C@H](C(C)C)N3CCC[C@@H]3COc3ccccc3CN(C)[C@@H]2c2nc(Br)cs2)N1` here?
A: The ring closure, isolated yield was 55%.

Q: Which ring closure, isolated yield (amide bond, 15-membered ring, 2 steps) does the source give for “(9S,15S,18S)-25-benzyl-2-ethyl-18-isopropyl-3-(2-((S)-1-methoxyethyl)pyridin-3-yl)-5,5,19-trimethyl-2,4,5,6,9,10,11,12,15,16,18,19,22,23,24,25-hexadecahydro-8H-9,13-epimino-1,31-etheno-15,28-methano-26,30-(metheno)pyrrolo[3,4-a1][1]oxa[7,10,13,19]tetraazacyclohentriacontine-8,14,17,20(21H)-tetraone” here?
A: The ring closure, isolated yield was 95%.

Q: With “tert-butyl ((9S,15S,18S,22R)-2-ethyl-18-isopropyl-3-(2-((S)-1-methoxyethyl)pyridin-3-yl)-5,5,19-trimethyl-8,14,17,20-tetraoxo-2,4,5,6,9,10,11,12,15,16,17,18,19,20,21,22,23,24-octadecahydro-8H,14H-9,13-epimino-1,31-etheno-15,28-methano-26,30-(metheno)pyrrolo[3,4-a1][1,19]dioxa[7,10,13]triazacyclohentriacontin-22-yl)carbamate” as the molecule, how does the ring closure, isolated yield (amide bond, 15-membered ring, 3 steps) read?
A: Its ring closure, isolated yield is 27%.

Q: For “(9S,15S,18R)-3-(5-(4-cyclopropylpiperazin-1-yl)-2-((S)-1-methoxyethyl)pyridin-3-yl)-2-ethyl-18-isopropyl-5,5-dimethyl-21-phenyl-2,4,5,6,9,10,11,12,15,16,19,22-dodecahydro-8H,14H-9,13-epimino-1,29-etheno-15,26-methano-24,28-(metheno)pyrrolo[3,4-u][1,17]dioxa[4,8,11]triazacyclononacosine-8,14,17(18H)-trione”, which ring closure, isolated yield (other bond, 13-membered ring, 2 steps) is on record?
A: The ring closure, isolated yield was 62%.

Q: Which ring closure, isolated yield (rcm bond, 14-membered ring, Grubbs II, DCM, 7.1 mM, 40.0 °C) does the source give for “(9S,15S,18S,Z)-2-ethyl-18-isopropyl-3-(2-((S)-1-methoxyethyl)pyridin-3-yl)-5,5,19-trimethyl-2,4,5,6,9,10,11,12,15,16,18,19,23,24-tetradecahydro-8H,14H-9,13-epimino-1,30-etheno-15,27-methano-25,29-(metheno)pyrrolo[3,4-z][1]oxa[7,10,13,18]tetraazacyclotriacontine-8,14,17,20-tetraone” here?
A: The ring closure, isolated yield was 16%.

Q: Which ring closure, isolated yield (from CCOC(=O)[C@@H](N)Cc1nc(Br)sc1CCCC(=O)N(C)[C@H](C(=O)O)C(C)C, amide bond, 12-membered ring, HATU/DIEA, DMF, 209.0 mM, 0.0 °C, 3 steps) does the source give for `CCOC(=O)[C@@H]1Cc2nc(Br)sc2CCCC(=O)N(C)[C@@H](C(C)C)C(=O)N1` here?
A: The ring closure, isolated yield was 28%.

Q: With “(9S,15S,18S,20aS,21aS,E)-2-ethyl-18-isopropyl-3-(2-((S)-1-methoxyethyl)pyridin-3-yl)-5,5,19-trimethyl-2,4,5,6,9,10,11,12,15,16,18,19,21,21a-tetradecahydro-8H-9,13-epimino-1,29-etheno-15,26-methano-24,28-(metheno)cyclopropa[o]pyrrolo[3,4-z][1]oxa[7,10,13]triazacyclotriacontine-8,14,17,20(20aH)-tetraone” as the molecule, how does the ring closure, isolated yield (rcm bond, 14-membered ring, Grubbs II (0.5 eq), DCM, 12.0 mM, 40.0 °C) read?
A: Its ring closure, isolated yield is 11%.

Q: Which ring closure, isolated yield (from C=CCOC[C@H](C(=O)N[C@@H](Cc1cc(C=C)cc(Br)n1)C(=O)OC)C(C)C, rcm bond, 13-membered ring, Grubbs II (0.1 eq), DCM, 2.28 mM, 40.0 °C) does the source give for `COC(=O)[C@@H]1Cc2cc(cc(Cl)n2)C=CCOC[C@@H](C(C)C)C(=O)N1` here?
A: The ring closure, isolated yield was 81%.

Q: With “(9S,15S,18S)-3-(5-(4-cyclopropylpiperazin-1-yl)-2-((S)-1-methoxyethyl)pyridin-3-yl)-2-ethyl-18-isopropyl-5,5-dimethyl-22-phenyl-2,4,5,6,9,10,11,12,15,16,20,21,22,23-tetradecahydro-8H,14H-9,13-epimino-1,29-etheno-15,26-methano-24,28-(metheno)pyrrolo[3,4-q][1,13]dioxa[4,7,27]triazacyclononacosine-8,14,17(18H)-trione” as the molecule, how does the ring closure, yield after HPLC ([1]; ester bond, 18-membered ring) read?
A: Its ring closure, yield after HPLC is 23%.

Q: For `COC(=O)[C@@H]1CCCN(C(=O)[C@@H]2Cc3cc(Br)cc(c3)CN(c3ccccc3)CCO[C@@H](C(C)C)C(=O)N2)N1`, which ring closure, isolated yield (from COC(=O)[C@@H]1CCCN(C(=O)[C@@H](N)Cc2cc(Br)cc(CN(CCO[C@H](C(=O)O)C(C)C)c3ccccc3)c2)N1, amide bond, 13-membered ring, EDCI/HOBt/DIEA, DCM, 107.0 mM, 25.0 °C, 2 steps) is on record?
A: The ring closure, isolated yield was 34%.
